Tests used:
[1] = molecular target: Somatostatin receptor type 2 (Homo sapiens, UniProt P30874)
Description: Agonist activity at human SST2 receptor expressed in CHO-K1 cells assessed as inhibition of NKH477-induced intracellular cAMP accumulation incubated for 20 mins by HTRF assay

[2] = molecular target: Somatostatin receptor type 1 (Homo sapiens, UniProt P30872); assay: Agonist activity at human SST1 receptor expressed in CHO-K1 cells assessed as inhibition of NKH477-induced intracellular cAMP accumulation incubated for 20 mins by HTRF assay; format: cell-based
[3] = molecular target: Somatostatin receptor type 3 (Homo sapiens, UniProt P32745); assay: Agonist activity at human SST3 receptor expressed in CHO-K1 cells assessed as inhibition of NKH477-induced intracellular cAMP accumulation incubated for 20 mins by HTRF assay; format: cell-based
[4] = molecular target: Somatostatin receptor type 4 (Homo sapiens, UniProt P31391); assay: Agonist activity at human SST4 receptor expressed in CHO-K1 cells assessed as inhibition of NKH477-induced intracellular cAMP accumulation incubated for 20 mins by HTRF assay; format: cell-based
[5] = molecular target: Somatostatin receptor type 5 (Homo sapiens, UniProt P35346); assay: Agonist activity at human SST5 receptor expressed in CHO-K1 cells assessed as inhibition of NKH477-induced intracellular cAMP accumulation incubated for 20 mins by HTRF assay; format: cell-based
[6] = molecular target: Voltage-gated inwardly rectifying potassium channel KCNH2 (Homo sapiens, UniProt Q12809); assay: Inhibition of hERG by fluorescence polarization assay; format: toxicity
Cytochrome P450 2C9 [7] = molecular target: T1, Cytochrome P450 2C9 (Homo sapiens, UniProt P11712); assay: Inhibition of human CYP2C9 expressed in insect cell microsomes in presence of NADP+ by fluorescence based analysis
Cytochrome P450 2C19 [8] = molecular target: T2, Cytochrome P450 2C19 (Homo sapiens, UniProt P33261); assay: Inhibition of human CYP2C19 expressed in insect cell microsomes in presence of NADP+ by fluorescence based analysis
Cytochrome P450 2D6 [9] = molecular target: T3, Cytochrome P450 2D6 (Homo sapiens, UniProt P10635); assay: Inhibition of human CYP2D6 expressed in insect cell microsomes in presence of NADP+ by fluorescence based analysis
Cytochrome P450 3A4 [10] = molecular target: T4, Cytochrome P450 3A4 (Homo sapiens, UniProt P08684); assay: Inhibition of human CYP3A4 expressed in insect cell microsomes in presence of NADP+ by fluorescence based analysis
Cytochrome P450 2C9 [11] = molecular target: T1, Cytochrome P450 2C9; assay: Inhibition of human CYP2C9 expressed in insect cell microsomes at 10 uM in presence of NADP+ by fluorescence based analysis; format: ADME, Microsome
Cytochrome P450 2C19 [12] = molecular target: T2, Cytochrome P450 2C19; assay: Inhibition of human CYP2C19 expressed in insect cell microsomes at 10 uM in presence of NADP+ by fluorescence based analysis; format: ADME, Microsome
Cytochrome P450 2D6 [13] = molecular target: T3, Cytochrome P450 2D6; assay: Inhibition of human CYP2D6 expressed in insect cell microsomes at 10 uM in presence of NADP+ by fluorescence based analysis; format: ADME, Microsome
Cytochrome P450 3A4 [14] = molecular target: T4, Cytochrome P450 3A4; assay: Inhibition of human CYP3A4 expressed in insect cell microsomes at 10 uM in presence of NADP+ by fluorescence based analysis; format: ADME, Microsome
[15] = Half life in Sprague-Dawley rat at 2.5 mg/kg, iv; conditions: in vivo
[16] = Clearance in Sprague-Dawley rat at 2.5 mg/kg, iv; conditions: in vivo
[17] = Volume of distribution at steady state in Sprague-Dawley rat at 2.5 mg/kg, iv; conditions: in vivo
[18] = Half life in Beagle dog at 2.5 mg/kg, iv; conditions: in vivo
[19] = Clearance in Beagle dog at 2.5 mg/kg, iv; conditions: in vivo
[20] = Volume of distribution at steady state in Beagle dog at 2.5 mg/kg, iv; conditions: in vivo
[21] = molecular target: Somatostatin receptor type 2 (Rattus norvegicus, UniProt P30680); assay: Agonist activity at rat SST2 receptor
[22] = molecular target: Somatostatin receptor type 2 (Canis lupus familiaris, UniProt Q49LX6); assay: Agonist activity at dog SST2 receptor
in vivo [23] = conditions: Sprague-Dawley, rat, po, 10 mg/kg
in vivo [24] = conditions: Sprague-Dawley, rat, po, 10 mg/kg; remark: listed apart in the source
in vivo [25] = conditions: beagle, dog, po, 10 mg/kg
in vivo [26] = conditions: beagle, dog, po, 10 mg/kg; remark: listed apart in the source

T3 sequence (P10635 whole entry): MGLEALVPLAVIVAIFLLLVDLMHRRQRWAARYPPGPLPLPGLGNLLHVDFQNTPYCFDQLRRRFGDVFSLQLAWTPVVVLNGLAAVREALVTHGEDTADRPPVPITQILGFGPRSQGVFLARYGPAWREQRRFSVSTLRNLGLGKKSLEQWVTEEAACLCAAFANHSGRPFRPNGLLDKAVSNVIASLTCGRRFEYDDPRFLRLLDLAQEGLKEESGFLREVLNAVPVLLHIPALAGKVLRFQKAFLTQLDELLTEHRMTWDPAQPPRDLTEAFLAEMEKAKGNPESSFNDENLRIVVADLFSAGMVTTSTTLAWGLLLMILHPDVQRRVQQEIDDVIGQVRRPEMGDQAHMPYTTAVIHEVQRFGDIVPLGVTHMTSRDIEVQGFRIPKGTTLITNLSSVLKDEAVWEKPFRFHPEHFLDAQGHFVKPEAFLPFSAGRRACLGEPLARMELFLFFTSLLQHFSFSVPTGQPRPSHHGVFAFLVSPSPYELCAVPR
T2 sequence (P33261 whole entry): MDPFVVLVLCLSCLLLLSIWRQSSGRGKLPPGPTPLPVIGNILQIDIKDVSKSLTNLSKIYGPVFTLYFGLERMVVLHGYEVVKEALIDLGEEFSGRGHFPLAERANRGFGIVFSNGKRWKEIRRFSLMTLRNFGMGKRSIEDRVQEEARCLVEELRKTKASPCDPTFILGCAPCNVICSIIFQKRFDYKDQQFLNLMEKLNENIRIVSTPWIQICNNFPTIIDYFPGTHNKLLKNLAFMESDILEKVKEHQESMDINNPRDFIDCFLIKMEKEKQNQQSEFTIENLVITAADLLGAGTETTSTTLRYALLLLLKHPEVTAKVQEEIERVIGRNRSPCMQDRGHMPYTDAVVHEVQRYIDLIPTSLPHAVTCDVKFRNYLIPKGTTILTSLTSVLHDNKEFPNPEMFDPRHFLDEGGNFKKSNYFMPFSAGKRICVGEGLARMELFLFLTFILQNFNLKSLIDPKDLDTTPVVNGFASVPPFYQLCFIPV
T4 sequence (P08684 whole entry): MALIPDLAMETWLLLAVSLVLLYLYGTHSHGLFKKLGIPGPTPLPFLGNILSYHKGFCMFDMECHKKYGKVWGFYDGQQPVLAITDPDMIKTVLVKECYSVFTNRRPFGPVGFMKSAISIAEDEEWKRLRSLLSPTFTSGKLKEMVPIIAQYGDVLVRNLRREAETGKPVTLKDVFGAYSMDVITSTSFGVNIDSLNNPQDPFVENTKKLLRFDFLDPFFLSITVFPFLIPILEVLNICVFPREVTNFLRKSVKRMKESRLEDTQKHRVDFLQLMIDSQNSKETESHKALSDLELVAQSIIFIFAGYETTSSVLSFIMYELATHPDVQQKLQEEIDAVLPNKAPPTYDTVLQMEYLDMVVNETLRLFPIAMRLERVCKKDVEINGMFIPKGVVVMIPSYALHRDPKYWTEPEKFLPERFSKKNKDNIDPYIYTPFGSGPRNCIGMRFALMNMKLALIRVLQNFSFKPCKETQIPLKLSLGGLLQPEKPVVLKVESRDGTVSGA
T1 sequence (P11712 whole entry): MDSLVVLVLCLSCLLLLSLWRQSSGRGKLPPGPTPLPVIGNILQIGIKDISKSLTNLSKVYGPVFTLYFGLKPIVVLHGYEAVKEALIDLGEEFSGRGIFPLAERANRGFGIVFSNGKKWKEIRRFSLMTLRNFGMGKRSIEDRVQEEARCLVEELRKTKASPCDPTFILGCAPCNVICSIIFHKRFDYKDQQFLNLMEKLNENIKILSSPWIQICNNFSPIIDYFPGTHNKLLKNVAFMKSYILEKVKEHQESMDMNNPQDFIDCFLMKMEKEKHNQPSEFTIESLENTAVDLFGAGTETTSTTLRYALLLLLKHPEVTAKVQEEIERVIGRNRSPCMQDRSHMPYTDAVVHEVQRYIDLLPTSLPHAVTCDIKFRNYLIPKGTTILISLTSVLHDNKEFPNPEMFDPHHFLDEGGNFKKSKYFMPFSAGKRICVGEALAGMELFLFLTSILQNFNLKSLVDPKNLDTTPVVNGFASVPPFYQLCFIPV
Somatostatin receptor type 2 (Homo sapiens, UniProt P30874), sequence (P30874 whole entry): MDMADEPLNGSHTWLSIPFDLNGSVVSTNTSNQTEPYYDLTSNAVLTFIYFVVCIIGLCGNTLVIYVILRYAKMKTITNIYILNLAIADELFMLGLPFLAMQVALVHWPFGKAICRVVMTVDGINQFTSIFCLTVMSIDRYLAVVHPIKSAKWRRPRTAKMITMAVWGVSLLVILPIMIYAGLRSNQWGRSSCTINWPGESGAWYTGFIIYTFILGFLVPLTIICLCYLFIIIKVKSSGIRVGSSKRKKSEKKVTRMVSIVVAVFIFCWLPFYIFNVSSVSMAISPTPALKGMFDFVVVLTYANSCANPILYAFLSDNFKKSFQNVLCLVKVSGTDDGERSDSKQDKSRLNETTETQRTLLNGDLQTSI
Somatostatin receptor type 3, sequence (P32745 whole entry): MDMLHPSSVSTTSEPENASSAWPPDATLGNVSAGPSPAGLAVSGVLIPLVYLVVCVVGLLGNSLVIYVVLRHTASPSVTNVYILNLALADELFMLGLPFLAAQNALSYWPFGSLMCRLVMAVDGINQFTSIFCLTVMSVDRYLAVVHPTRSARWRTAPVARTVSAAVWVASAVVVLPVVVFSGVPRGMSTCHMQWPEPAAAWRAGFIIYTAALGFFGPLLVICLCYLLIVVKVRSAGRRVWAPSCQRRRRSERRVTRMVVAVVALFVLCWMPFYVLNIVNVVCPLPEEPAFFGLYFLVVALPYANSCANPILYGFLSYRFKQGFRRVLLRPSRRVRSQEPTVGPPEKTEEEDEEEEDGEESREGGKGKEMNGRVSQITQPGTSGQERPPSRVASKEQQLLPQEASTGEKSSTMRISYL
Somatostatin receptor type 4, sequence (P31391 whole entry): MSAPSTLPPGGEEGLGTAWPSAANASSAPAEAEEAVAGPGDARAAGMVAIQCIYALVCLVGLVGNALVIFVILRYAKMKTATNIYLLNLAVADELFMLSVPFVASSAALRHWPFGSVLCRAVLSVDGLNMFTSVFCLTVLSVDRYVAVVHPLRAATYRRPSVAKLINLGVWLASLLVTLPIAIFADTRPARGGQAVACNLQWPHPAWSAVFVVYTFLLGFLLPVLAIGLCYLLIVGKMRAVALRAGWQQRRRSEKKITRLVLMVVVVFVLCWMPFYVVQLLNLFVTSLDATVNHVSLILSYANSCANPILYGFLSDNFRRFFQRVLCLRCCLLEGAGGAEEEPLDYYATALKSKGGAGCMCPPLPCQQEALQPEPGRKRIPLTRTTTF
Somatostatin receptor type 1, sequence (P30872 whole entry): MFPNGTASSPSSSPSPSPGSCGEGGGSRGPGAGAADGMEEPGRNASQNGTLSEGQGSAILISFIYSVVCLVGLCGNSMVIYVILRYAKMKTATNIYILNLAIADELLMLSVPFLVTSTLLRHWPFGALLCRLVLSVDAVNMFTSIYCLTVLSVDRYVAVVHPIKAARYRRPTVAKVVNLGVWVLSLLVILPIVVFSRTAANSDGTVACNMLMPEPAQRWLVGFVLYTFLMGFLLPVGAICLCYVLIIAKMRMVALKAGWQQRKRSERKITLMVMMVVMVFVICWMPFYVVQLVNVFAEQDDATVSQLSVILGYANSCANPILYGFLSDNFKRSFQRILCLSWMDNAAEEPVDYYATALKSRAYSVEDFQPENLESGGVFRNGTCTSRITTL
Somatostatin receptor type 5, sequence (P35346 whole entry): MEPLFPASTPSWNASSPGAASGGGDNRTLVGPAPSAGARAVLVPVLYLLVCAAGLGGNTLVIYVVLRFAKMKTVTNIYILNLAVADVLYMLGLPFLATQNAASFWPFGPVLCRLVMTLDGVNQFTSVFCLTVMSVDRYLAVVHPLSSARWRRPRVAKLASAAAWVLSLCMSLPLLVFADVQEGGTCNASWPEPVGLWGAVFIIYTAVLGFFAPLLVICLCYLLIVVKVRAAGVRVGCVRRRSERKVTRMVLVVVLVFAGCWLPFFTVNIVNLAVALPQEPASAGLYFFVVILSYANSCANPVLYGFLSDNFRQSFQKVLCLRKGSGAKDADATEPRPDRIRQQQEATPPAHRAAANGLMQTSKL
Somatostatin receptor type 2 (Rattus norvegicus, UniProt P30680), sequence (P30680 whole entry): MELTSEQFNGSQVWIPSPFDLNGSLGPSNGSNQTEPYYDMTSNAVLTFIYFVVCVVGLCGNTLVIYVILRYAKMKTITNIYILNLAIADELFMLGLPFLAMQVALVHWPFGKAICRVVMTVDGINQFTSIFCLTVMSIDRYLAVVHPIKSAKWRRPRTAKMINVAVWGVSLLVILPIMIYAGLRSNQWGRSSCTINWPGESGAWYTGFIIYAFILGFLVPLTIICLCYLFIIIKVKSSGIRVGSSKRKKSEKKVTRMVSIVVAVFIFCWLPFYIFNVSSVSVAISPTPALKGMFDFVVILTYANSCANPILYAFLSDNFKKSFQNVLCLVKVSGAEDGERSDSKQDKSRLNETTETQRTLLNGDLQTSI
Somatostatin receptor type 2 (Canis lupus familiaris, UniProt Q49LX6), sequence (Q49LX6 whole entry): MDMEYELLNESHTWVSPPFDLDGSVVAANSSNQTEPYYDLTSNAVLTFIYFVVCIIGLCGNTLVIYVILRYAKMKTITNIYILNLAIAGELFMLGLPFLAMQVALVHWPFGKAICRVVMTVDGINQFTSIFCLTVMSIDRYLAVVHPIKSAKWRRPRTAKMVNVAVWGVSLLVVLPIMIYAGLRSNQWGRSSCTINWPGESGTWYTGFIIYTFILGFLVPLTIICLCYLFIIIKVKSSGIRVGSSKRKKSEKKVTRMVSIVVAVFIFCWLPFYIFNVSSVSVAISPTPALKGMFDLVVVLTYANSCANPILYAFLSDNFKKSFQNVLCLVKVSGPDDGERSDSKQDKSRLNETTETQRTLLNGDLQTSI

EC50 [1] [µM] | EC50 [2] [µM] | EC50 [3] [µM] | EC50 [4] [µM] | EC50 [5] [µM] | SMILES | IC50 [6] [µM] | further results
0.0014 |  |  |  |  | N#Cc1cccc(-c2ccc3ncc(-c4cc(F)cc(F)c4)c(N4CCC(N)CC4)c3c2)c1 |  | 
 | > 1 | > 1 | 1 | > 1 | N#Cc1cccc(-c2ccc3ncc(-c4cccc(F)c4)c(N4CCC(N)CC4)c3c2)c1O | > 10 | 
0.00034 | > 1 |  | > 1 | > 1 | N#Cc1cc(F)cc(-c2ccc3ncc(-c4cc(F)cc(F)c4)c(N4CCC(N)CC4)c3c2)c1O | 10 | IC50 (Cytochrome P450 2C9 [7]): 6.31 µM; IC50 (Cytochrome P450 2C19 [8]): 3.98 µM; IC50 (Cytochrome P450 2D6 [9]): > 10 µM; IC50 (Cytochrome P450 3A4 [10]): 10 µM; inhibition (INH) (Cytochrome P450 2C9 [11]): Not Active; inhibition (INH) (Cytochrome P450 2C19 [12]): Not Active; inhibition (INH) (Cytochrome P450 2D6 [13]): Not Active; inhibition (INH) (Cytochrome P450 3A4 [14]): Not Active
0.0034 |  |  |  |  | NC1CCN(c2c(-c3cc(F)cc(F)c3)cnc3ccc(-c4ccccc4O)cc23)CC1 |  | 
 | > 1 | > 1 | > 1 | > 1 | COc1cc(F)cc(-c2cnc3ccc(-c4cccc(C#N)c4O)cc3c2N2CCC(N)CC2)c1 |  | 
0.00017 | > 1 | > 1 | > 1 | > 1 | Cc1cc(F)cc(-c2cnc3ccc(-c4cccc(C#N)c4O)cc3c2N2CCC(N)CC2)c1 |  | 
 | > 1 | > 1 | 1 | > 1 | N#Cc1cccc(-c2ccc3ncc(-c4cc(F)cc(F)c4)c(N4CCC(N)CC4)c3c2)c1O [PALTUSOTINE] |  | IC50 (Cytochrome P450 2C9 [7]): 7.94 µM; IC50 (Cytochrome P450 2C19 [8]): 5.01 µM; IC50 (Cytochrome P450 2D6 [9]): > 10 µM; IC50 (Cytochrome P450 3A4 [10]): > 10 µM; inhibition (INH) (Cytochrome P450 2C9 [11]): Not Active; inhibition (INH) (Cytochrome P450 2C19 [12]): Not Active; inhibition (INH) (Cytochrome P450 2D6 [13]): Not Active; inhibition (INH) (Cytochrome P450 3A4 [14]): Not Active; half-life [15]: 2.8 h; clearance [16]: 9.1 mL/min/kg; Vd [17]: 1.5 L/kg; half-life [18]: 7.5 h; clearance [19]: 9.4 mL/min/kg; Vd [20]: 3.5 L/kg; EC50 [21]: 0.0012 µM; EC50 [22]: 0.0066 µM; AUC(0-inf) (in vivo [23]): 1610 ng·h/mL; Cmax (in vivo [24]): 129 ng/mL; Cmax (in vivo [25]): 1370 ng/mL; AUC(0-inf) (in vivo [26]): 10400 ng·h/mL

SMILES | EC50 [1] [µM] | EC50 [2] [µM] | EC50 [3] [µM] | EC50 [4] [µM] | EC50 [5] [µM] | IC50 [6] [µM] | further results
NC1CCN(c2c(-c3cc(Cl)cc(Cl)c3)cnc3ccccc23)CC1 | 0.14 |  |  |  |  |  | 
NC1CCN(c2c(-c3cc(F)cc(F)c3)cnc3ccc(-c4cccc(F)c4O)cc23)CC1 |  | > 1 | > 1 | 0.0251 | > 1 | 1 | 
NC1CCN(c2c(-c3cc(F)cc(F)c3)cnc3ccc(-c4cccc(O)c4)cc23)CC1 |  | > 1 | > 1 | 0.0158 | > 1 | < 1 | 
